This is an account of results in the METLIN SMRT retention time set (Domingo-Almenara et al. 2019).

Structures are written as SMILES.

The data set in a line: gradient 5% acetonitrile 3 min, to 50% in 2 min, to 85% in 15 min, held 3 min, 100 µL/min. As to conditions: column: Zorbax Extend-C18 2.1 x 50 mm; eluents: water / acetonitrile, 0.1% formic acid. The method in brief:
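Over 3 months, pure standards in mixtures of ~100 molecules were run by HPLC coupled to a quadrupole time-of-flight mass spectrometer in positive and negative ionization mode. The column was a Zorbax Extend-C18 (2.1 × 50 mm, 1.8 μm) at 100 μL/min, eluted with water and acetonitrile each holding 0.1% formic acid, with 40 μL dead and 900 μL dwell volumes. Retention time was determined from adduct peaks chosen by software and checked manually.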
The compound `CN(CCNc1nc(-c2ccc(Cl)cc2)nc2ccccc12)C1CCCCC1` displayed an RP-LC retention time of 642 s.
Under `Cc1cc(C(=O)NC(C)C)c2cc(Cl)ccc2n1` stands 718 s.
Under `O=C1c2ccccc2C(=O)c2c(NCCNCCO)ccc(O)c21` stands 634 s.
For `COc1ccc(C2NCCc3c2[nH]c2ccccc32)cc1O` (centres undefined), the RP-LC retention time was found to be 582 s.
`COc1ccc(OC)c(S(=O)(=O)N2CCC(Cc3ncc(C)n3C3CC3)C2)c1` (centres undefined) returned an RP-LC retention time of 656 s.
Then `Cc1cccc(NC(=O)C2CCCN(S(=O)(=O)c3c[nH]c(C(=O)N4CCCC4)c3)C2)c1C` (centres undefined), with 802 s; and `COc1ccc(CN2CCc3nc(N4CCCC4)ncc3C2)c(OC)c1`, with 619 s.
Then `Cn1nccc1C(=O)N1CCCCCCNC(=O)[C@@H]2CCCC[C@@H]21`, with 705 s.
Under `O=C(NC1CCCCC1)NC1CCN(C(=O)C2CC2)C1` (centres undefined) stands 663 s.
In turn, `CC(C)OCCCN(CC(=O)N1CCNCC1)C(=O)c1ccc(C(F)(F)F)cc1` registered an RP-LC retention time of 653 s.
Then `Cn1cc(-c2nc(C(=O)N3CCc4ccccc43)cs2)c2cccnc21`, with 1010 s; and `CCc1cc(=O)n(CC(=O)Nc2cc(OC)ccc2OC)c(N2CCOCC2)n1`, with 967 s.
Then `CCOC(=O)c1cnc2c(-c3cccc(Cl)c3)c(C)nn2c1N`, with 1180 s; and `CCOC(=O)c1sc(NC(=O)Cn2c(=O)oc3ccccc32)nc1C`, with 778 s; and `CCOc1ccc(/C=C/c2nc3ccccc3n(C)c2=O)cc1`, with 933 s.
Then `O=S(=O)(c1cccc2nsnc12)N1CCCn2nc(-c3ccncc3)cc2C1`, with 591 s; and `CCOC(=O)c1nn(-c2cc(C(=O)OC)cc(C(=O)OC)c2)cc1O`, with 769 s.
In turn, `COc1cccc(-c2noc(CN3C(=O)COc4ccc(Cl)cc43)n2)c1` returned an RP-LC retention time of 1070 s.
Under `Cc1ccc(C2CC(=O)c3cnc(Nc4nc(C)c5cccc(C)c5n4)nc3C2)cc1` (centres undefined) stands 794 s; under `Cc1c(C(=O)N2CCCC(C)C2)cnn1-c1ccc(-c2nc(C(C)C)no2)cn1` (centres undefined), 1120 s; under `O=C(O)c1nnn(-c2ccc3c(c2)OCCO3)c1-c1ccncc1`, 593 s.
Under `Cc1n[nH]c(C)c1S(=O)(=O)N1CCC(c2nnc(-c3ccco3)s2)CC1` stands 660 s; under `Cc1nc(C(C)C)ncc1C(=O)Nc1ccc(Br)cc1F`, 907 s.
For `Cc1oc(C2CCN(C(=O)NCc3cccc(F)c3)CC2)nc1C(=O)N1CCOCC1`, the RP-LC retention time was found to be 903 s.
The compound `O=C(CCc1ccccc1)Nc1cnc(-c2cccnc2)nc1` had an RP-LC retention time of 690 s.
Then `O=C(Nc1ccccc1C(=O)NCCCN1CCCC1)C1=CSCCO1`, with 613 s.
Under `Cn1nc(-c2nc(C(C)(C)C)no2)ccc1=O` stands 761 s; under `CCOC(=O)N1CCC(NC(=O)c2cc3sccc3n2Cc2ccc(Cl)cc2)CC1`, 1060 s; under `Cc1cc(C)cc(NC(=O)N2CCCC2c2nncn2C2CCCC2)c1` (centres undefined), 722 s.
Then `CCn1cc(C(=O)Nc2ccc(F)cc2)c(S(=O)(=O)N2CCSCC2)n1`, with 976 s.
In turn, `COCCCNC(=O)C1CCCN(c2ccc(Sc3ccc(Br)cc3)nn2)C1` (centres undefined) came in with an RP-LC retention time of 777 s.
For the compound `Cc1oc(-c2ccc(NC(=O)CCc3ccccc3)cc2)nc1Cn1cccn1`, the RP-LC retention time came out at 897 s.
Then `Cc1ccc(NC(=O)N2CCC(OC3CCN(S(C)(=O)=O)CC3)CC2)cc1F`, with 792 s; and `Cc1nc(-c2ccccc2)sc1CC(=O)NCCSc1nncn1C`, with 626 s.
